Results from PubChem BioAssay (NCI).
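Grown in 96-well plates, cells were treated for 48 hours with each compound at five concentrations. Insufficient inhibition: endpoint recorded as highest concentration tested. Here, GI50 denotes the concentration required for 50% inhibition of growth. TGI denotes the concentration required for complete inhibition of growth.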

Key:
Assay in all cases: growth of human tumour cells (NCI), 48 h
MDA-N = system: MDA-N
XF 498 CNS = system: XF 498 CNS
DMS 114 small cell lung = system: DMS 114 small cell lung
DLD-1 colon = system: DLD-1 colon
DMS 273 small cell lung = system: DMS 273 small cell lung
M19-MEL melanoma = system: M19-MEL melanoma
SNB-78 CNS = system: SNB-78 CNS
KM20L2 colon = system: KM20L2 colon
RXF-631 renal = system: RXF-631 renal

Structure (SMILES)	TGI (MDA-N) [µM]	TGI (XF 498 CNS) [µM]	TGI (DMS 114 small cell lung) [µM]	TGI (DLD-1 colon) [µM]	TGI (DMS 273 small cell lung) [µM]	TGI (M19-MEL melanoma) [µM]	TGI (SNB-78 CNS) [µM]	TGI (KM20L2 colon) [µM]	TGI (RXF-631 renal) [µM]	GI50 (MDA-N) [µM]
O=C1c2ccccc2-[n+]2ccc3c([nH]c4ccccc43)c21	0.318	–	–	–	–	–	–	–	–	–
N#Cc1ccccc1C(Cl)(Cl)c1cnccn1	–	33.8	43	> 100	> 100	> 100	> 100	–	–	–
C=CCNc1nc2c(s1)C(=O)c1ccccc1C2=O	3.28	34.8	3.27	–	28.2	3.22	72.9	33.5	–	–
COC/C=C\COC	–	> 100	> 100	> 100	> 100	> 100	> 100	> 100	> 100	–
CC[n+]1oc(C(=O)c2ccc(Cl)cc2)c(-c2ccccc2)c1-c1ccccc1.[Cl][Fe]([Cl])([Cl])[Cl]	> 100	–	–	–	–	–	–	–	–	28.7
C=C1C(=O)OC2C/C(C)=C/CC/C(C)=C/CCC3(COC(C)=O)OC3CC12 (stereo unspecified)	–	19.5	14.6	14.4	20.9	26.4	30.3	19.9	–	–
O=C1CC2C(=O)c3ccccc3CC2c2ccccc21 (stereo unspecified)	> 100	–	–	–	–	–	–	–	–	–
CCc1ccc(NC(=O)NC(=O)c2ccccc2[N+](=O)[O-])cc1Oc1ncc(Cl)cn1	–	–	> 100	> 100	–	> 100	> 100	0.0481	–	–
Cc1ccc(NC(=O)CCc2nc(N)nc(N)c2-c2ccccc2)cc1C	–	> 100	> 100	> 100	> 100	> 100	> 100	> 100	> 100	–
COc1ccc(N=NC(C(=O)c2ccccc2)C(=O)c2ccccc2)cc1	–	71.9	54.6	96.6	56.7	–	–	64	> 100	–
